Results: ChEMBL document CHEMBL3885881, “DrugMatrix”

Species: Rattus norvegicus
Test: DrugMatrix - Regimen: Daily Repeat
Assay type: toxicity, organism-based, Sprague-Dawley
Set-up: regimen Daily Repeat, gender Male, age 6-8 weeks
Conditions: in vivo, sc, route subcutaneous, […]; for ABSOLUTE BASOPHIL / ABSOLUTE EOSINOPHIL / ABSOLUTE LYMPHOCYTE / ABSOLUTE MONOCYTE / ABSOLUTE SEGMENTED NEUTROPHIL / BASOPHIL / EOSINOPHIL / ERYTHROCYTE COUNT / HEMATOCRIT / HEMOGLOBIN / LEUKOCYTE COUNT / LYMPHOCYTE / MEAN CORPUSCULAR HEMOGLOBIN / MEAN CORPUSCULAR HEMOGLOBIN CONCENTRATION / MEAN CORPUSCULAR VOLUME / MONOCYTE / NEUTROPHIL / NUCLEATED RED BLOOD CELLS / PLATELET COUNT: tissue Blood; for ALANINE AMINOTRANSFERASE / ALBUMIN / ALKALINE PHOSPHATASE / ASPARTATE AMINOTRANSFERASE / BLOOD UREA NITROGEN / CARBON DIOXIDE / CHLORIDE / CHOLESTEROL / CREATINE PHOSPHOKINASE / CREATININE / GLUCOSE / LACTATE DEHYDROGENASE / LIPASE / PHOSPHORUS / POTASSIUM / SODIUM / TOTAL BILIRUBIN / TOTAL PROTEIN / URIC ACID: tissue Plasma
[1] = 7 mg/kg, 72 h, dose level High, time 3 day
[2] = 7 mg/kg, 120 h, dose level High, time 5 day
[3] = 72 h, dose 1.5 mg/Kg, dose level Low, time 3 day
[4] = 120 h, dose 1.5 mg/Kg, dose level Low, time 5 day

## CC1=C(/C=C/C(C)=C/C=C/C(C)=C/C(=O)O)C(C)(C)CCC1 [TRETINOIN]
[1]
  ABSOLUTE BASOPHIL: 0 CELLS/uL
  ABSOLUTE EOSINOPHIL: 0 CELLS/uL
  ABSOLUTE LYMPHOCYTE: 16685.33 CELLS/uL
  ABSOLUTE MONOCYTE: 222.33 CELLS/uL
  ABSOLUTE SEGMENTED NEUTROPHIL: 2859 CELLS/uL
  BASOPHIL: 0%
  EOSINOPHIL: 0%
  ERYTHROCYTE COUNT: 5.42 x10E6/uL
  HEMATOCRIT: 34.57%
  HEMOGLOBIN: 12.7 G/DL
  LEUKOCYTE COUNT: 19.77 x10E3/uL
  LYMPHOCYTE: 84%
  MEAN CORPUSCULAR HEMOGLOBIN: 23.43 pg
  MEAN CORPUSCULAR HEMOGLOBIN CONCENTRATION: 36.73 G/DL
  MEAN CORPUSCULAR VOLUME: 63.77 fL
  MONOCYTE: 1%
  NEUTROPHIL: 15%
  NUCLEATED RED BLOOD CELLS: 0 /100WBC
  PLATELET COUNT: 1323.33 x10E3/uL
  ALANINE AMINOTRANSFERASE: 50 u/L
  ALBUMIN: 4.03 G/DL
  ALKALINE PHOSPHATASE: 328.67 u/L
  ASPARTATE AMINOTRANSFERASE: 77.33 u/L
  BLOOD UREA NITROGEN: 15.67 mg/dL
  CARBON DIOXIDE: 15 mmol/L
  CHLORIDE: 103.67 MEQ/L
  CHOLESTEROL: 79 mg/dL
  CREATINE PHOSPHOKINASE: 311.33 u/L
  CREATININE: 0.19 mg/dL
  GLUCOSE: 165.33 mg/dL
  LACTATE DEHYDROGENASE: 120.33 u/L
  LIPASE: 9.67 u/L
  PHOSPHORUS: 13.53 mg/dL
  POTASSIUM: 7.16 MEQ/L
  SODIUM: 147 MEQ/L
  TOTAL BILIRUBIN: 0.2 mg/dL
  TOTAL PROTEIN: 5.97 G/DL
  URIC ACID: 1.5 mg/dL
[2]
  ABSOLUTE BASOPHIL: 0 CELLS/uL
  ABSOLUTE EOSINOPHIL: 71.67 CELLS/uL
  ABSOLUTE LYMPHOCYTE: 17691.67 CELLS/uL
  ABSOLUTE MONOCYTE: 531.67 CELLS/uL
  ABSOLUTE SEGMENTED NEUTROPHIL: 3905 CELLS/uL
  BASOPHIL: 0%
  EOSINOPHIL: 0.33%
  ERYTHROCYTE COUNT: 5.84 x10E6/uL
  HEMATOCRIT: 36.1%
  HEMOGLOBIN: 13.37 G/DL
  LEUKOCYTE COUNT: 22.2 x10E3/uL
  LYMPHOCYTE: 79.67%
  MEAN CORPUSCULAR HEMOGLOBIN: 22.9 pg
  MEAN CORPUSCULAR HEMOGLOBIN CONCENTRATION: 37.03 G/DL
  MEAN CORPUSCULAR VOLUME: 61.8 fL
  MONOCYTE: 2.33%
  NEUTROPHIL: 17.67%
  NUCLEATED RED BLOOD CELLS: 0 /100WBC
  PLATELET COUNT: 1087.33 x10E3/uL
  ALANINE AMINOTRANSFERASE: 46.33 u/L
  ALBUMIN: 3.87 G/DL
  ALKALINE PHOSPHATASE: 319.67 u/L
  ASPARTATE AMINOTRANSFERASE: 88 u/L
  BLOOD UREA NITROGEN: 14.67 mg/dL
  CARBON DIOXIDE: 33.33 mmol/L
  CHLORIDE: 103.33 MEQ/L
  CHOLESTEROL: 75.67 mg/dL
  CREATINE PHOSPHOKINASE: 348 u/L
  CREATININE: 0.28 mg/dL
  GLUCOSE: 172.33 mg/dL
  LACTATE DEHYDROGENASE: 105.67 u/L
  LIPASE: 12 u/L
  PHOSPHORUS: 13.8 mg/dL
  POTASSIUM: 6.84 MEQ/L
  SODIUM: 147.23 MEQ/L
  TOTAL BILIRUBIN: 0.13 mg/dL
  TOTAL PROTEIN: 6.07 G/DL
  URIC ACID: 1.8 mg/dL
[3]
  ABSOLUTE BASOPHIL: 0 CELLS/uL
  ABSOLUTE EOSINOPHIL: 41.67 CELLS/uL
  ABSOLUTE LYMPHOCYTE: 10665.33 CELLS/uL
  ABSOLUTE MONOCYTE: 55.67 CELLS/uL
  ABSOLUTE SEGMENTED NEUTROPHIL: 2104 CELLS/uL
  BASOPHIL: 0%
  EOSINOPHIL: 0.33%
  ERYTHROCYTE COUNT: 4.74 x10E6/uL
  HEMATOCRIT: 30.27%
  HEMOGLOBIN: 11.93 G/DL
  LEUKOCYTE COUNT: 12.87 x10E3/uL
  LYMPHOCYTE: 83.67%
  MEAN CORPUSCULAR HEMOGLOBIN: 25.23 pg
  MEAN CORPUSCULAR HEMOGLOBIN CONCENTRATION: 39.47 G/DL
  MEAN CORPUSCULAR VOLUME: 63.87 fL
  MONOCYTE: 0.33%
  NEUTROPHIL: 15.67%
  NUCLEATED RED BLOOD CELLS: 0 /100WBC
  PLATELET COUNT: 1093.33 x10E3/uL
  ALANINE AMINOTRANSFERASE: 51 u/L
  ALBUMIN: 4.23 G/DL
  ALKALINE PHOSPHATASE: 460.67 u/L
  ASPARTATE AMINOTRANSFERASE: 100 u/L
  BLOOD UREA NITROGEN: 15.67 mg/dL
  CARBON DIOXIDE: 22.33 mmol/L
  CHLORIDE: 107.67 MEQ/L
  CHOLESTEROL: 98.33 mg/dL
  CREATINE PHOSPHOKINASE: 387.67 u/L
  CREATININE: 0.23 mg/dL
  GLUCOSE: 164.33 mg/dL
  LACTATE DEHYDROGENASE: 522.33 u/L
  LIPASE: 11.33 u/L
  PHOSPHORUS: 12.5 mg/dL
  POTASSIUM: 6.67 MEQ/L
  SODIUM: 150.27 MEQ/L
  TOTAL BILIRUBIN: 0.27 mg/dL
  TOTAL PROTEIN: 6.27 G/DL
  URIC ACID: 1.97 mg/dL
[4]
  ABSOLUTE BASOPHIL: 0 CELLS/uL
  ABSOLUTE EOSINOPHIL: 0 CELLS/uL
  ABSOLUTE LYMPHOCYTE: 9182.33 CELLS/uL
  ABSOLUTE MONOCYTE: 21 CELLS/uL
  ABSOLUTE SEGMENTED NEUTROPHIL: 1630 CELLS/uL
  BASOPHIL: 0%
  EOSINOPHIL: 0%
  ERYTHROCYTE COUNT: 5.54 x10E6/uL
  HEMATOCRIT: 34.87%
  HEMOGLOBIN: 12.9 G/DL
  LEUKOCYTE COUNT: 10.83 x10E3/uL
  LYMPHOCYTE: 85%
  MEAN CORPUSCULAR HEMOGLOBIN: 23.27 pg
  MEAN CORPUSCULAR HEMOGLOBIN CONCENTRATION: 37 G/DL
  MEAN CORPUSCULAR VOLUME: 62.9 fL
  MONOCYTE: 0.33%
  NEUTROPHIL: 14.67%
  NUCLEATED RED BLOOD CELLS: 0 /100WBC
  PLATELET COUNT: 981.67 x10E3/uL
  ALANINE AMINOTRANSFERASE: 52 u/L
  ALBUMIN: 3.9 G/DL
  ALKALINE PHOSPHATASE: 336.33 u/L
  ASPARTATE AMINOTRANSFERASE: 91 u/L
  BLOOD UREA NITROGEN: 16.33 mg/dL
  CARBON DIOXIDE: 24.33 mmol/L
  CHLORIDE: 107 MEQ/L
  CHOLESTEROL: 79 mg/dL
  CREATINE PHOSPHOKINASE: 270.33 u/L
  CREATININE: 0.17 mg/dL
  GLUCOSE: 180.33 mg/dL
  LACTATE DEHYDROGENASE: 147.67 u/L
  LIPASE: 10.33 u/L
  PHOSPHORUS: 14.17 mg/dL
  POTASSIUM: 6.48 MEQ/L
  SODIUM: 147.97 MEQ/L
  TOTAL BILIRUBIN: 0.23 mg/dL
  TOTAL PROTEIN: 6.07 G/DL
  URIC ACID: 2.07 mg/dL
